Measured values published in PMC12138978, “Mu Opioid Receptor Positive Allosteric Modulator BMS-986122 Confers Agonist-Dependent G Protein Subtype Signaling Bias” (Biochemistry, 2025).
Values joined by “and” are separate entries in the source; they are usually repeats but may differ in a detail not shown here. Equal values may be shown once. Read-outs that look alike come from different tables or passages of the source.

Assays:
[1] = target: T1, human MOR signaling through Gαi1 (Homo sapiens, UniProt P35372); format: cell-based
T1 construct: host or cells: HEK 293T, transient

[2] = target: T2, human MOR signaling through Gαi2 (Homo sapiens, UniProt P35372); format: cell-based; details: for Kb: read-out: KB (affinity of BMS-986122)
T2 construct: host or cells: HEK 293T, transient

[3] = target: T3, human MOR signaling through Gαi3 (Homo sapiens, UniProt P35372); format: cell-based
T3 construct: host or cells: HEK 293T, transient

[4] = target: T4, human MOR signaling through GαoA (Homo sapiens, UniProt P35372); format: cell-based
T4 construct: host or cells: HEK 293T, transient

[5] = target: T5, human MOR signaling through GαoB (Homo sapiens, UniProt P35372); format: cell-based; details: for Kb: read-out: KB (affinity of BMS-986122)
T5 construct: host or cells: HEK 293T, transient

[6] = target: T6, human MOR signaling through Gαz (Homo sapiens, UniProt P35372); format: cell-based; details: Gαz, up to 10 μM, absence of any orthosteric agonist, no RGS20
T6 construct: host or cells: HEK 293T, transient

[7] = target: T7, human MOR signaling through Gαi3^K349R, E350G mutant (Homo sapiens, UniProt P35372); experiment: nanoBRET assay, MOR signaling through mutant Gαi3 K349R, E350G; format: cell-based; details: orthosteric agonist 7-hydroxymitragynine, read-out: KB (affinity of BMS-986122)
T7 construct: host or cells: HEK 293T, transient
Description: (§1) Human embryonic kidney (HEK) 293T cells (ATCC, Manassas, VA) maintained and transfected as described in previous work, with some modifications. Cells were cultured on 0.01% poly-L-lysine (Millipore Sigma, Darmstadt, Germany)-coated 10 cm dishes in Dulbecco’s modified Eagle medium (GIBCO, Grand Island, NY) supplemented with 5% fetal bovine serum, 1% nonessential amino acids, 1 mM sodium pyruvate, and 100 U/mL penicillin/streptomycin, maintained in an incubator at 37 °C in a 5% CO2 atmosphere. Prior to transfection, 3.0 × 10^6 cells were reseeded onto Matrigel-coated (Corning, Inc., Corning NY) 6 cm dishes and incubated for 4 h at 37 °C and 5% CO2. […]
(§2) BRET measurements between mVenus-Gβ1γ2 and masGRK3ct-nLuc for nanoBRET, and Gγ-GFP2 and Gα-rLuc8 for TruPATH, were performed to determine agonist-dependent activation of each Gα protein of interest in the presence and absence of BMS-986122, in live HEK 293T cells. […] For TruPATH, cells were incubated for 30 min at 25 °C prior to luminescence emissions being read at 515 and 410 nm. […]
(§3) This form of the operational model was selected because all parameters are constrained by default to be equal for each data set except for τ, which had no constraints. […] Statistical significance between Δlog(τ) values for each Gα subunit were calculated via one-way ANOVA with Tukey’s posthoc analysis. […]

[8] = target: T8, human MOR signaling through Gαi3-oBct (Homo sapiens, UniProt P35372); experiment: nanoBRET assay, MOR signaling through Gαi3-oBct chimera (C-terminus of GαoB); format: cell-based; details: orthosteric agonist 7-hydroxymitragynine, read-out: KB (affinity of BMS-986122)
T8 construct: host or cells: HEK 293T, transient
Description: as §1, §2, §3

[9] = target: T9, human MOR signaling through Gαi2^N346 K mutant (Homo sapiens, UniProt P35372); experiment: nanoBRET assay, MOR signaling through mutant Gαi2 N346K; format: cell-based; details: orthosteric agonist 7-hydroxymitragynine, read-out: KB (affinity of BMS-986122)
T9 construct: host or cells: HEK 293T, transient
Description: as §1, §2, §3

[10] = target: T10, human MOR signaling through Gαz with RGS20 (Homo sapiens, UniProt P35372); experiment: nanoBRET assay, MOR signaling through Gαz with RGS20 (RGSz1) coexpression; format: cell-based; details: RGS20 (RGSz1) co-expressed
T10 construct: host or cells: HEK 293T, transient

[11] = system: human MOR signaling through different Gα subunits; experiment: nanoBRET assay, comparison or average across Gα subunits; format: cell-based; details: 7-hydroxymitragnine as agonist, 10 μM PAM, relative transduction coefficients compared between Gαi3 and GαoB
[12] = system: MOR; design: method as in Burford et al.; details: endomorphin-1 as orthosteric agonist, allosteric ternary complex model; ref Burford et al.; cited from earlier work

T2 sequence (P35372 whole entry): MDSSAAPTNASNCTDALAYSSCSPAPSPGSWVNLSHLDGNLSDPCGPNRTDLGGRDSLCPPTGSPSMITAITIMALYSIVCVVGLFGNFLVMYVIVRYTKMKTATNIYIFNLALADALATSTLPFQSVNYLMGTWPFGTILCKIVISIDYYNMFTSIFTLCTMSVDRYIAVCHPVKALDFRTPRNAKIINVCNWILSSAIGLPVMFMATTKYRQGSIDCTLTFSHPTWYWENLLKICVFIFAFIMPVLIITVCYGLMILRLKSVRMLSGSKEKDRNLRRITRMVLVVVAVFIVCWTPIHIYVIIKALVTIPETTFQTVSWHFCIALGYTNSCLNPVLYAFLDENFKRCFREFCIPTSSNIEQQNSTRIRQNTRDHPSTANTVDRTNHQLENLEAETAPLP
T2 sequence (P04899 2-355 partner limits assumed): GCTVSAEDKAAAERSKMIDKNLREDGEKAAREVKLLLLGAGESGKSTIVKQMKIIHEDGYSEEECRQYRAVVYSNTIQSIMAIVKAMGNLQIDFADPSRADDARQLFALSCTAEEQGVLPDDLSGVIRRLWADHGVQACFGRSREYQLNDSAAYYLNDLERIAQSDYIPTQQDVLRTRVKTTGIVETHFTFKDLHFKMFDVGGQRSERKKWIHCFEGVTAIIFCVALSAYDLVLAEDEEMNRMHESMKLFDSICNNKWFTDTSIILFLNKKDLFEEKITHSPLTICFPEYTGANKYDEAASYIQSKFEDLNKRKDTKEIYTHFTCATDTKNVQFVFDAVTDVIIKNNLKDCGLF
T4 sequence (P35372 whole entry): as the sequence (P35372 whole entry) above
T4 sequence (P09471 2-354 partner limits assumed): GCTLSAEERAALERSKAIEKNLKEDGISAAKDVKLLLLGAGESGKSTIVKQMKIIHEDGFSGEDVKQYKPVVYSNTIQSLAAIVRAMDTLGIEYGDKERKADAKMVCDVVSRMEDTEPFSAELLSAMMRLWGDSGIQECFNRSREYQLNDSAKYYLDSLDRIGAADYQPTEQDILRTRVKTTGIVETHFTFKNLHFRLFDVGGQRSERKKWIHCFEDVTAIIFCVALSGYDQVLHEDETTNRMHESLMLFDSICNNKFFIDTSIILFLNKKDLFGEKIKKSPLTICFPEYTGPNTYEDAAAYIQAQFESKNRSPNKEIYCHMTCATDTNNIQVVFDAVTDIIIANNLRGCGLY
T3 sequence (P35372 whole entry): as the sequence (P35372 whole entry) above
T3 sequence (P08754 2-354 partner limits assumed): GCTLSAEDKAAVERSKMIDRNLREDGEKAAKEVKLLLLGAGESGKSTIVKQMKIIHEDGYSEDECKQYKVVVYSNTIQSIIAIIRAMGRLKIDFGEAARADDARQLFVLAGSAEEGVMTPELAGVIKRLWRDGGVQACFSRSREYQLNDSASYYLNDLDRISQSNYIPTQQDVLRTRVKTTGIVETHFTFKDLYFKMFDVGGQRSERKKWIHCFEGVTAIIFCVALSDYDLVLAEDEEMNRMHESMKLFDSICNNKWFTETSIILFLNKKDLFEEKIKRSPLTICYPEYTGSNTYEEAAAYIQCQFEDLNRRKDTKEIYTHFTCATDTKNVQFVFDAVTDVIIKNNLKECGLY
T1 sequence (P35372 whole entry): as the sequence (P35372 whole entry) above
T1 sequence (P63096 2-354 partner limits assumed): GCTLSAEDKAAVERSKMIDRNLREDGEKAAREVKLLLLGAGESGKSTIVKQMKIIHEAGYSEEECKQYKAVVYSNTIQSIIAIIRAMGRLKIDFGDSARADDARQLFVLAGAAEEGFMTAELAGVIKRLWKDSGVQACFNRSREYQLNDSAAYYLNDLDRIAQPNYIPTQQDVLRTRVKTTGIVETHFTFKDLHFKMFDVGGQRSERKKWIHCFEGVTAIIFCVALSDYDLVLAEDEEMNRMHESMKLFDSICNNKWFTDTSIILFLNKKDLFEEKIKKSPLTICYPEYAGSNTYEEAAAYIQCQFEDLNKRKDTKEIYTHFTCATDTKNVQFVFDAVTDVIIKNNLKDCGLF
T5 sequence (P35372 whole entry): as the sequence (P35372 whole entry) above
T5 sequence (P09471 2-354 isoform P09471-2 partner limits assumed): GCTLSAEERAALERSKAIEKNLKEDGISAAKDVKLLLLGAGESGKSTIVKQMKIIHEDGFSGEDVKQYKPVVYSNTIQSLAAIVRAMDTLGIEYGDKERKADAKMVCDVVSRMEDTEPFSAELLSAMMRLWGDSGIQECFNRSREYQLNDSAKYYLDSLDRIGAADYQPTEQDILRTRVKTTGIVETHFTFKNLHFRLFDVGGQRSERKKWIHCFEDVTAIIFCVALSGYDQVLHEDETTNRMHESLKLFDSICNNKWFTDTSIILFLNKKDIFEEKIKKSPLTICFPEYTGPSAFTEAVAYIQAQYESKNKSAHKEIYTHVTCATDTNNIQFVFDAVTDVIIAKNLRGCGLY
T9 sequence (P35372 whole entry, stated change not applied): as the sequence (P35372 whole entry) above
T9 sequence (P04899 with tags, fused parts or gaps N347K partner): as the sequence (P04899 2-355 partner limits assumed) above, with N346K counted along it
T7 sequence (P35372 whole entry, stated change not applied): as the sequence (P35372 whole entry) above
T7 sequence (P08754 with tags, fused parts or gaps K349R/E350G partner): as the sequence (P08754 2-354 partner limits assumed) above, with K348R, E349G counted along it
T8 sequence (P35372 whole entry): as the sequence (P35372 whole entry) above
T8 sequence (P08754 with tags, fused parts or gaps K345A/N346K/K349R/E350G partner limits assumed): as the sequence (P08754 2-354 partner limits assumed) above, with K344A, N345K, K348R, E349G counted along it
T10 sequence (P35372 whole entry): as the sequence (P35372 whole entry) above
T10 sequence (P19086 2-355 partner limits assumed): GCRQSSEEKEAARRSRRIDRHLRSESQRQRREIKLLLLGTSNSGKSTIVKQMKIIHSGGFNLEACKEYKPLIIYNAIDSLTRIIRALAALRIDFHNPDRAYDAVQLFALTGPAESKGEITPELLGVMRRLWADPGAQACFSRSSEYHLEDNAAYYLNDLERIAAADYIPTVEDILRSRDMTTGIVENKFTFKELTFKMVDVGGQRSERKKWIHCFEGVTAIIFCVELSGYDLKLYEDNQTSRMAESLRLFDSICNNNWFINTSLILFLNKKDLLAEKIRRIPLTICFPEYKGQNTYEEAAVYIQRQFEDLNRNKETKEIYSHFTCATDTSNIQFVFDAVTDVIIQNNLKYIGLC
T6 sequence (P35372 whole entry): as the sequence (P35372 whole entry) above
T6 sequence (P19086 2-355 partner limits assumed): as the sequence (P19086 2-355 partner limits assumed) above

**Q.** For `COc1ccc(C2SCCN2S(=O)(=O)c2ccc(Cl)cc2)cc1Br` (stereo not drawn) [BMS-986122], which “α (affinity cooperativity factor of BMS-986122)” value [1] is on record?
**A.** The value was 5.0 ± 0.2 and 6.9 ± 0.9.

**Q.** What about the “β (efficacy cooperativity factor of BMS-986122)” value [1] of the same compound?
**A.** Its value is 10 ± 0.8.

**Q.** What about the “Response of PAM alone (allosteric agonism)” value (“Response of PAM alone” below) ([1]; Gαi1, up to 10 μM, absence of any orthosteric agonist) of the same compound?
**A.** Its value is “no response”.

**Q.** What about the Kb ([1]; read-out: KB (affinity of BMS-986122)) of the same compound?
**A.** The Kb was 2500 nM and 3400 nM.

**Q.** What about the “α (affinity cooperativity factor of BMS-986122)” value [2] of the same compound?
**A.** Its value is 5.9 ± 0.6 and 3.2 ± 0.3.

**Q.** And the “β (efficacy cooperativity factor of BMS-986122)” value [2]?
**A.** Its value is 3.3 ± 0.3.

**Q.** What about the Kb ([2]; Gαi2 (WT), orthosteric agonist 7-Hydroxymitragynine) of the same compound?
**A.** Its Kb is 3100 ± 700 nM.

**Q.** And the “β (efficacy cooperativity factor of BMS-986122)” value ([2]; Gαi2, orthosteric agonist 7-Hydroxymitragynine, functional allosteric model)?
**A.** The value was 10 ± 2.8.

**Q.** What about the “Response of PAM alone” value ([2]; Gαi2, up to 10 μM, absence of any orthosteric agonist) of the same compound?
**A.** Its value is “no response”.

**Q.** What about the Kb [2] of the same compound?
**A.** The Kb was 2400 nM and 1500 nM and 1900 nM.

**Q.** What about the Kb ([3]; Gαi3 (WT), orthosteric agonist 7-Hydroxymitragynine, read-out: KB (affinity of BMS-986122)) of the same compound?
**A.** The Kb was 2300 ± 800 nM.

**Q.** And the “β (efficacy cooperativity factor of BMS-986122)” value ([3]; Gαi3, orthosteric agonist 7-Hydroxymitragynine, functional allosteric model)?
**A.** The value was 5.9 ± 1.1.

**Q.** What about the “Response of PAM alone” value ([3]; Gαi3, up to 10 μM, absence of any orthosteric agonist) of the same compound?
**A.** Its value is “no response”.

**Q.** And the “α (affinity cooperativity factor of BMS-986122)” value [4]?
**A.** Its value is 7.1 ± 1.0 and 4.3 ± 0.7.

**Q.** And the “β (efficacy cooperativity factor of BMS-986122)” value [4]?
**A.** Its value is 4.2 ± 0.3.

**Q.** What about the “β (efficacy cooperativity factor of BMS-986122)” value ([4]; GαoA, orthosteric agonist 7-Hydroxymitragynine, functional allosteric model) of the same compound?
**A.** The value was 12 ± 1.8.

**Q.** What about the Kb ([4]; GαoA, orthosteric agonist 7-Hydroxymitragynine, read-out: KB (affinity of BMS-986122)) of the same compound?
**A.** The Kb was 8000 ± 200 nM.

**Q.** And the “Response of PAM alone” value ([4]; GαoA, up to 10 μM, absence of any orthosteric agonist)?
**A.** Its value is “no response”.

**Q.** What about the “β (efficacy cooperativity factor of BMS-986122)” value [5] of the same compound?
**A.** The value was 4.2 ± 0.8.

**Q.** What about the Kb ([5]; GαoB (WT), orthosteric agonist 7-Hydroxymitragynine) of the same compound?
**A.** Its Kb is 540 ± 100 nM.

**Q.** What about the “Hill coefficient of R50 curve” value ([5]; GαoB, BMS-986122 titrated in presence of 10 μM 7-hydroxymitragynine) of the same compound?
**A.** The value was 3.0.

**Q.** What about the EC50 ([5]; GαoB, BMS-986122 titrated in presence of constant 10 μM 7-hydroxymitragynine, read-out: R50 (concentration of PAM which gives a half-maximal response)) of the same compound?
**A.** Its EC50 is 670 ± 110 nM.

**Q.** And the “β (efficacy cooperativity factor of BMS-986122)” value ([5]; GαoB, orthosteric agonist 7-Hydroxymitragynine, functional allosteric model)?
**A.** The value was 15 ± 4.2.

**Q.** And the “Response of PAM alone” value ([5]; GαoB, up to 10 μM, absence of any orthosteric agonist)?
**A.** The value was “no response”.

**Q.** What about the Kb [5] of the same compound?
**A.** Its Kb is 620 ± 180 nM.

**Q.** What about the “Emax of PAM alone (allosteric agonism)” value [6] of the same compound?
**A.** The value was 21 ± 2%.

**Q.** And the Kb [7]?
**A.** The Kb was 2800 ± 400 nM.

**Q.** And the Kb [8]?
**A.** The Kb was 700 ± 60 nM.

**Q.** And the Kb [9]?
**A.** The Kb was 690 ± 60 nM.

**Q.** What about the “Allosteric agonism of PAM alone with RGS20 co-expression” value [10] of the same compound?
**A.** Its value is “effectively eliminate the allosteric agonism”.

**Q.** And the “ΔΔlog(τ)oB-i3” value [11]?
**A.** Its value is 0.708.

**Q.** And the “Affinity cooperativity factor α” value [12]?
**A.** Its value is 7.0.

**Q.** And the Kb [12]?
**A.** The Kb was 5000 nM.
